# From patent US8952024B2, “Herbicidal pyrimidone derivatives” (E I du Pont de Nemours and Company, priority 2009, dated 2015)
# Key:
# Test in all cases: Test B pre-/postemergence plant response
# Assay type in all cases: in vivo
# [1] = test system: johnsongrass (Sorghum halepense)
# How it was run: (§1)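 Visually scored on a 0 to 100 scale after 13 to 15 days in greenhouse versus controls. Treatments were preemergence on seeded loam/sand soil and postemergence on 1- to 4-leaf plants.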
# [2] = test system: cocklebur (Xanthium strumarium); conditions: Preemergence
# How it was run: as §1
# [3] = test system: soybean (Glycine max)
# How it was run: as §1
# [4] = test system: giant foxtail (Setaria faberii)
# How it was run: as §1
# [5] = test system: downy bromegrass (Bromus tectorum)
# How it was run: as §1
# [6] = test system: kochia (Kochia scoparia); conditions: Postemergence; for Plant response rating, Kochia: scale 0 (no effect) to 100 (complete control)
# How it was run: as §1
# [7] = test system: corn (Zea mays)
# How it was run: as §1
# [8] = test system: yellow nutsedge (Cyperus esculentus)
# How it was run: as §1
# [9] = test system: large crabgrass (Digitaria sanguinalis)
# How it was run: as §1
# [10] = test system: Surinam grass (Brachiaria decumbens)
# How it was run: as §1
# [11] = test system: green foxtail (Setaria viridis)
# How it was run: as §1
# [12] = test system: wild oat (Avena fatua)
# How it was run: as §1
# [13] = test system: goosegrass (Eleusine indica)
# How it was run: as §1
# [14] = test system: woolly cupgrass (Eriochloa villosa)
# How it was run: as §1
# [15] = test system: morningglory (Ipomoea coccinea)
# How it was run: as §1
# [16] = test system: velvetleaf (Abutilon theophrasti)
# How it was run: as §1
# [17] = test system: blackgrass (Alopecurus myosuroides)
# How it was run: as §1
# [18] = 250 g ai/ha, Preemergence, 0 to 100 scale
# [19] = Postemergence, 62 g ai/ha, scale 0 (no effect) to 100 (complete control), 13 to 15 days
# [20] = Postemergence, 125 g ai/ha, visual rating after 13 to 15 days, scale 0 (no effect) to 100 (complete control)
# [21] = Postemergence, 250 g ai/ha, scale 0 to 100
# [22] = Preemergence, 31 g ai/ha, scale 0 to 100 (0 no effect, 100 complete control)
# [23] = Preemergence, 62 g ai/ha, scale 0 to 100, 0 no effect, 100 complete control
# [24] = Preemergence, 125 g ai/ha, 0 to 100 scale
# [25] = Postemergence, 31 g ai/ha, scale 0 to 100 (0 no effect, 100 complete control)
compound,measurement,setting,value
O=C1CCCC(O)=C1C(=O)c1cnc(-c2ccccc2)n(-c2ccccc2Br)c1=O [Compound 37],"Plant response rating, Johnsongrass",[1]; [18],90
same,"Plant response rating, Johnsongrass",[1]; [19],40
same,"Plant response rating, Johnsongrass",[1]; [20],60
same,Johnsongrass plant response rating,[1]; [21],85
same,"Plant response rating, Johnsongrass",[1]; [22],0
same,"Plant response rating, Johnsongrass",[1]; [23],0
same,Johnsongrass plant response rating,[1]; [24],45
same,"Plant response rating, Cocklebur","[2]; 250 g ai/ha, 0 to 100 scale",45
same,"Plant response rating, Cocklebur","[2]; 31 g ai/ha, scale 0 to 100 (0 no effect, 100 complete control)",0
same,Cocklebur plant response rating,"[2]; 125 g ai/ha, 0 to 100 scale",0
same,"Plant response rating, Soybean",[3]; [18],35
same,"Plant response rating, Soybean",[3]; [19],80
same,"Plant response rating, Soybean",[3]; [20],95
same,"Plant response rating, Soybean",[3]; [22],0
same,Soybean plant response rating,[3]; [24],0
same,"Plant response rating, Foxtail, Giant",[4]; [18],75
same,"Plant response rating, Foxtail, Giant",[4]; [25],70
same,"Plant response rating, Foxtail, Giant",[4]; [19],85
same,"Plant response rating, Foxtail, Giant",[4]; [20],95
same,"Foxtail, Giant plant response rating",[4]; [21],100
same,"Plant response rating, Foxtail, Giant",[4]; [22],0
same,"Plant response rating, Foxtail, Giant",[4]; [23],0
same,"Foxtail, Giant plant response rating",[4]; [24],0
same,"Plant response rating, Bromegrass, Downy",[5]; [18],0
same,"Plant response rating, Bromegrass, Downy",[5]; [25],0
same,"Plant response rating, Bromegrass, Downy",[5]; [19],10
same,"Plant response rating, Bromegrass, Downy",[5]; [20],15
same,"Bromegrass, Downy plant response rating",[5]; [21],45
same,"Plant response rating, Bromegrass, Downy",[5]; [22],0
same,"Plant response rating, Bromegrass, Downy",[5]; [23],0
same,"Bromegrass, Downy plant response rating",[5]; [24],0
same,"Plant response rating, Kochia","[6]; 62 g ai/ha, 13 to 15 days",0
same,"Plant response rating, Kochia","[6]; 125 g ai/ha, visual rating after 13 to 15 days",15
same,Kochia plant response rating,"[6]; 250 g ai/ha, scale 0 to 100",65
same,"Plant response rating, Corn",[7]; [18],0
same,"Plant response rating, Corn",[7]; [25],0
same,"Plant response rating, Corn",[7]; [19],15
same,"Plant response rating, Corn",[7]; [20],60
same,Corn plant response rating,[7]; [21],75
same,"Plant response rating, Corn",[7]; [22],0
same,"Plant response rating, Corn",[7]; [23],0
same,Corn plant response rating,[7]; [24],0
same,"Plant response rating, Nutsedge, Yellow",[8]; [18],90
same,"Plant response rating, Nutsedge, Yellow",[8]; [19],15
same,"Plant response rating, Nutsedge, Yellow",[8]; [20],25
same,"Plant response rating, Nutsedge, Yellow",[8]; [22],0
same,"Nutsedge, Yellow plant response rating",[8]; [24],20
same,"Plant response rating, Crabgrass, Large",[9]; [18],100
same,"Plant response rating, Crabgrass, Large",[9]; [25],70
same,"Plant response rating, Crabgrass, Large",[9]; [19],75
same,"Plant response rating, Crabgrass, Large",[9]; [20],85
same,"Crabgrass, Large plant response rating",[9]; [21],90
same,"Plant response rating, Crabgrass, Large",[9]; [22],0
same,"Plant response rating, Crabgrass, Large",[9]; [23],0
same,"Crabgrass, Large plant response rating",[9]; [24],10
same,"Plant response rating, Surinam Grass",[10]; [18],100
same,"Plant response rating, Surinam Grass",[10]; [19],70
same,"Plant response rating, Surinam Grass",[10]; [20],75
same,"Plant response rating, Surinam Grass",[10]; [22],0
same,Surinam Grass plant response rating,[10]; [24],55
same,"Plant response rating, Foxtail, Green",[11]; [18],90
same,"Plant response rating, Foxtail, Green",[11]; [25],60
same,"Plant response rating, Foxtail, Green",[11]; [19],65
same,"Plant response rating, Foxtail, Green",[11]; [20],85
same,"Foxtail, Green plant response rating",[11]; [21],95
same,"Plant response rating, Foxtail, Green",[11]; [22],0
same,"Plant response rating, Foxtail, Green",[11]; [23],0
same,"Foxtail, Green plant response rating",[11]; [24],0
same,"Plant response rating, Oat, Wild",[12]; [18],10
same,"Plant response rating, Oat, Wild",[12]; [19],10
same,"Plant response rating, Oat, Wild",[12]; [20],40
same,"Plant response rating, Oat, Wild",[12]; [22],0
same,"Oat, Wild plant response rating",[12]; [24],0
same,"Plant response rating, Goosegrass",[13]; [18],100
same,"Plant response rating, Goosegrass",[13]; [19],85
same,"Plant response rating, Goosegrass",[13]; [20],85
same,Goosegrass plant response rating,[13]; [21],95
same,"Plant response rating, Goosegrass",[13]; [22],0
same,Goosegrass plant response rating,[13]; [24],80
same,"Plant response rating, Cupgrass, Woolly",[14]; [18],70
same,"Plant response rating, Cupgrass, Woolly",[14]; [25],55
same,"Plant response rating, Cupgrass, Woolly",[14]; [19],65
same,"Plant response rating, Cupgrass, Woolly",[14]; [20],75
same,"Cupgrass, Woolly plant response rating",[14]; [21],100
same,"Plant response rating, Cupgrass, Woolly",[14]; [22],0
same,"Plant response rating, Cupgrass, Woolly",[14]; [23],0
same,"Cupgrass, Woolly plant response rating",[14]; [24],10
same,"Plant response rating, Morningglory",[15]; [18],0
same,"Plant response rating, Morningglory",[15]; [19],70
same,"Plant response rating, Morningglory",[15]; [20],75
same,"Plant response rating, Morningglory",[15]; [22],0
same,"Plant response rating, Morningglory",[15]; [23],0
same,Morningglory plant response rating,[15]; [24],0
same,"Plant response rating, Velvetleaf",[16]; [18],98
same,"Plant response rating, Velvetleaf",[16]; [19],80
same,"Plant response rating, Velvetleaf",[16]; [20],95
same,"Plant response rating, Velvetleaf",[16]; [22],0
same,Velvetleaf plant response rating,[16]; [24],20
same,"Plant response rating, Blackgrass",[17]; [18],10
same,"Plant response rating, Blackgrass",[17]; [25],0
same,"Plant response rating, Blackgrass",[17]; [19],0
same,"Plant response rating, Blackgrass",[17]; [20],5
same,Blackgrass plant response rating,[17]; [21],30
same,"Plant response rating, Blackgrass",[17]; [22],0
same,"Plant response rating, Blackgrass",[17]; [23],0
same,Blackgrass plant response rating,[17]; [24],5
